The values below come from US20060100431A1, “Biologically active compounds” (Amura Therapeutics Limited, priority 2002, published 2006).

The experiment addresses Wild-type cruzipain (Trypanosoma cruzi, UniProt P25779). In words: Trypanosoma cruzi cruzipain peptidase activity assay (Ki). It is filed as biochemical. The note with it: read-out: Ki, inhibitors of cruzain and cruzipains. The procedure: Unless otherwise stated, all general chemicals and biochemicals were purchased from either the Sigma Chemical Company, Poole, Dorset, U.K or from Fisher Scientific UK, Loughborough, Leicestershire, U.K. Absorbance assays were carried out in flat-bottomed 96-well plates (Spectra; Greiner Bio-One Ltd., Stonehouse, Gloucestershire, U.K.) using a SpectraMax PLUS384 plate reader (Molecular Devices, Crawley, U.K.). Fluorescence high throughput assays were carried out in either 384-well microtitre plates (Corning Costar 3705 plates, Fisher Scientific) or 96-well ‘U’ bottomed Microfluor W1 microtitre plates (Thermo Labsystems, Ashford, Middlesex, U.K.). Fluorescence assays were monitored using a SpectraMax Gemini fluorescence plate reader (Molecular Devices). For substrates employing either a 7-amino-4-methylcoumarin (AMC) or a 7-amino-4-trifluoromethylcoumarin (AFC) fluorophore, assays were monitored at an excitation wavelength of 365 nm and an emission wavelength of 450 nm and the fluorescence plate reader calibrated with AMC. For substrates employing a 3-amino-benzoyl (Abz) fluorophore, assays were monitored at an excitation wavelength of 310 nm and an emission wavelength of 445 nm; the fluorescence plate reader calibrated with 3-amino-benzamide (Fluka). Unless otherwise indicated, all the peptidase substrates were purchased from Bachem UK, St Helens, Merseyside, UK. Substrates utilizing fluorescence resonance energy transfer methodology (i.e. FRET-based substrates) were synthesized at Incenta Limited using published methods (Atherton & Sheppard, Solid Phase Peptide Synthesis, IRL Press, Oxford, U.K, 1989) and employed Abz (2-aminobenzoyl) as the fluorescence donor and 3-nitro-tyrosine [Tyr(NO2)] as the fluorescence quencher (Meldal, M. and Breddam, K., Anal. Biochem, 195, 141-147, 1991). Hydroxyethylpiperazine ethanesulfonate (HEPES), tris-hydroxylmethyl aminomethane (tris) base, bis-tris-propane and all the biological detergents (e.g. CHAPS, zwittergents, etc.) were purchased from CN Biosciences UK, Beeston, Nottinghamshire, U.K. Glycerol was purchased from Amersham Pharmacia Biotech, Little Chalfont, Buckinghamshire, U.K. Stock solutions of substrate or inhibitor were made up to 10 mM in 100% dimethylsulfoxide (DMSO) (Rathburns, Glasgow, U.K.) and diluted as appropriately required. In all cases the DMSO concentration in the assays was maintained at less than 1% (vol./vol.).
Assay protocols were based on literature precedent (Table 4; Barrett, A. J., Rawlings, N. D. and Woessner, J. F., 1998, Handbook of Proteolytic Enzymes, Academic Press, London and references therein) and modified as required to suit local assay protocols. Enzyme was added as required to initiate the reaction and the activity, as judged by the change in fluorescence upon conversion of substrate to product, was monitored over time. All assays were carried out at 25±1° C.
Wild-type cruzipain, derived from Trypanosoma cruzi Dm28 epimastigotes, was obtained from Dr. Julio Scharfstein (Instituto de Biofisica Carlos Chagas Filho, Universidade Federal do Rio de Janeiro, Rio de Janeiro, Brazil). Activity assays were carried out in 100 mM sodium phosphate, pH 6.75 containing 1 mM EDTA and 10 mM L-cysteine using 2.5 nM enzyme. […] The rate of conversion of substrate to product was derived from the slope of the increase in fluorescence monitored continuously over time.
The apparent inhibition constant (Ki) for each compound was determined on the basis that inhibition was reversible and occurred by a pure-competitive mechanism. The Ki values were calculated, from the dependence of enzyme activity as a function of inhibitor concentration, by direct regression analysis (Prism v 3.02) using Equation 2 (Cornish-Bowden, A., 1995.). [formula]

Where only a bound is given, the exact number is not on record here.

Wild-type cruzipain, sequence (P25779 whole entry): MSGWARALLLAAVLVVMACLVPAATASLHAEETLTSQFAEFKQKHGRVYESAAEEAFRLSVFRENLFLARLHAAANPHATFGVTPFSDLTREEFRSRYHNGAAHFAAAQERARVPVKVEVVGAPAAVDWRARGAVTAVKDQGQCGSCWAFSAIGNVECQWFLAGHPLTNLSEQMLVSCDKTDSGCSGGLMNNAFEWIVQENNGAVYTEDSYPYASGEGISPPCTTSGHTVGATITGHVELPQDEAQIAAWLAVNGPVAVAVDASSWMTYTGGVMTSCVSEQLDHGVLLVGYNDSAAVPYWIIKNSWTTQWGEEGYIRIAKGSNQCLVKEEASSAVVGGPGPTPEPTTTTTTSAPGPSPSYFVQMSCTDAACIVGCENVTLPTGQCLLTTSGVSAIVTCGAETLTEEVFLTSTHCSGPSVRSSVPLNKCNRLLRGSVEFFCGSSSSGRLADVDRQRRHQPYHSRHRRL

The term Ki denotes a dissociation constant, usually derived from enzyme kinetics or from competition with a known ligand. Turning to `CC(C)C[C@H](NC(=O)c1ccc(N(C)C)cc1)C(=O)N1CC[C@@H]2[C@H]1C(=O)CN2C(=O)c1ccccn1` [Example 79, (3aR,6aS)-4-Dimethylamino-N-{(1S)-3-methyl-1-[6-oxo-4-(pyridine-2-carbonyl)-hexahydro-pyrrolo[3,2-b]pyrrole-1-carbonyl]-butyl}-benzamide], the Ki was under 5 µM. Under `CC(C)C[C@H](NC(=O)c1ccc(N(C)C)cc1)C(=O)N1CC[C@@H]2[C@H]1C(=O)CN2C(=O)c1cccc[n+]1[O-]` [Example 80] stands under 5 µM; under `CC(C)C[C@H](NC(=O)c1ccc(N(C)C)cc1)C(=O)N1CC[C@@H]2[C@H]1C(=O)CN2C(=O)c1ccc[n+]([O-])c1` [Example 81, (3aR,6aS)-4-Dimethylamino-N-{(1S)-3-methyl-1-[6-oxo-4-(1-oxy-pyridine-3-carbonyl)-hexahydro-pyrrolo[3,2-b]pyrrole-1-carbonyl]-butyl}-benzamide], under 5 µM; under `CC(C)C[C@H](NC(=O)c1ccc(N(C)C)cc1)C(=O)N1CC[C@@H]2[C@H]1C(=O)CN2C(=O)c1ccc(N2CCOCC2)nc1` [Example 94, (3aR,6aS)-4-Dimethylamino-N-{(1S)-3-methyl-1-[4-(6-morpholin-4-yl-pyridine-3-carbonyl)-6-oxo-hexahydro-pyrrolo[3,2-b]pyrrole-1-carbonyl]-butyl}-benzamide], under 5 µM. Under `CC(C)C[C@H](NC(=O)c1ccc(N(C)C)cc1)C(=O)N1CC[C@@H]2[C@H]1C(=O)CN2C(=O)C1CCC1` [Example 133, (3aR,6aS)-N-[(1S)-1-(4-Cyclobutanecarbonyl-6-oxo-hexahydro-pyrrolo[3,2-b]pyrrole-1-carbonyl)-3-methyl-butyl]-4-dimethylamino-benzamide] stands under 5 µM; under `CC(C)C[C@H](NC(=O)c1ccc(N(C)C)cc1)C(=O)N1CC[C@@H]2[C@H]1C(=O)CN2C(=O)C1CCCNC1` (stereo partly drawn) [Example 140, (3aR,6aS)-4-Dimethylamino-N-{(1S)-3-methyl-1-[6-oxo-4-(piperidine-3-carbonyl)-hexahydro-pyrrolo[3,2-b]pyrrole-1-carbonyl]-butyl}-benzamide], under 5 µM. Under `CC(C)C[C@H](NC(=O)c1ccc(N(C)C)cc1)C(=O)N1CC[C@@H]2[C@H]1C(=O)CN2C(=O)[C@@H]1CCCN1` [Example 156, (3aR,6aS)-4-Dimethylamino-N-{(1S)-3-methyl-1-[6-oxo-4-((2S)-pyrrolidine-2-carbonyl)-hexahydro-pyrrolo[3,2-b]pyrrole-1-carbonyl]-butyl}-benzamide] stands under 5 µM; under `CC(C)C[C@H](NC(=O)c1ccc(N(C)C)cc1)C(=O)N1CC[C@@H]2[C@H]1C(=O)CN2C(=O)[C@H]1CCCN1` [Example 157, (3aR,6aS)-4-Dimethylamino-N-{(1S)-3-methyl-1-[6-oxo-4-((2R)-pyrrolidine-2-carbonyl)-hexahydro-pyrrolo[3,2-b]pyrrole-1-carbonyl]-butyl}-benzamide], under 5 µM. `CC(C)C[C@H](NC(=O)c1ccc(N(C)C)cc1)C(=O)N1CC[C@@H]2[C@H]1C(=O)CN2C(=O)[C@H](C)N` [Example 162, (3aR,6aS)-N-{(1S)-1-[4-((2S)-2-Amino-propionyl)-6-oxo-hexahydro-pyrrolo[3,2-b]pyrrole-1-carbonyl]-3-methyl-butyl}-4-dimethylamino-benzamide]: the Ki is under 5 µM.

Consider `CC(C)C[C@H](NC(=O)c1ccc(N(C)C)cc1)C(=O)N1CC[C@@H]2[C@H]1C(=O)CN2C(=O)c1ccccc1OC(F)(F)F` [Example 168, (3aR,6aS)-4-Dimethylamino-N-{(1S)-3-methyl-1-[6-oxo-4-(2-trifluoromethoxy-benzoyl)-hexahydro-pyrrolo[3,2-b]pyrrole-1-carbonyl]-butyl}-benzamide], for which the Ki was under 5 µM.
